According to ChEMBL document CHEMBL5137134, “Developing the Natural Prenylflavone Artocarpin from Artocarpus hirsutus as a Potential Lead Targeting Pathogenic, Multidrug-Resistant Staphylococcus aureus, Persisters and Biofilms with No Detectable Resistance” (J Nat Prod, 2022):
In brackets after ≈: the same amount, converted by molar mass. Activity calls are given as the source filed them. The rule behind the calls is not given here. Peptide text beside a SMILES is read from it.

How the values were obtained:
Staphylococcus aureus [1] = assay: Synergistic antibacterial activity against Staphylococcus aureus ATCC 29213 assessed as reduction in bacterial growth incubated for 24 hrs in presence of artocarpin by checkerboard method; type: functional
Staphylococcus aureus [2] = assay: microbe, parasite or virus in culture; conditions: ATCC 29213
Description: Antibacterial activity against Staphylococcus aureus ATCC 29213 assessed as reduction in bacterial growth incubated for 16 to 18 hrs by broth microdilution method

Acinetobacter baumannii [3] = assay: Antibacterial activity against Acinetobacter baumannii BAA 1605 assessed as reduction in bacterial growth incubated for 16 to 18 hrs by broth microdilution method; type: functional; conditions: time 16-18 hrs
Escherichia coli [4] = assay: Antibacterial activity against Escherichia coli ATCC 25922 assessed as reduction in bacterial growth incubated for 16 to 18 hrs by broth microdilution method; type: functional; conditions: time 16-18 hrs
Escherichia coli [5] = assay: Antibacterial activity against Escherichia coli ATCC 25922 assessed as reduction in bacterial growth incubated for 16 to 18 hrs in presence of PMBN by broth microdilution method; type: functional; conditions: time 16-18 hrs
Acinetobacter baumannii [6] = assay: Antibacterial activity against Acinetobacter baumannii BAA 1605 assessed as reduction in bacterial growth incubated for 16 to 18 hrs in presence of PMBN by broth microdilution method; type: functional; conditions: time 16-18 hrs
Staphylococcus aureus [7] = assay: Antibacterial activity against Staphylococcus aureus ATCC 29213 at 1 time MIC after 24 hrs by time kill assay; type: functional
Enterococcus = assay: Antibacterial activity against Enterococcus NR 31903 assessed as reduction in bacterial growth incubated for 16 to 18 hrs by broth microdilution method; type: functional; conditions: time 16-18 hrs
Klebsiella pneumoniae = assay: Antibacterial activity against Klebsiella pneumoniae BAA 1705 assessed as reduction in bacterial growth incubated for 16 to 18 hrs by broth microdilution method; type: functional; conditions: time 16-18 hrs
Pseudomonas aeruginosa = assay: Antibacterial activity against Pseudomonas aeruginosa ATCC 27853 assessed as reduction in bacterial growth incubated for 16 to 18 hrs by broth microdilution method; type: functional; conditions: time 16-18 hrs
Staphylococcus aureus [8] = assay: Antibiofilm activity against Staphylococcus aureus ATCC 29213 assessed as reduction in preformed bacterial biofilm mass at 1 time MIC incubated for 24 hrs by crystal violet staining based microtiter plate reader assay; type: functional; set-up: scale not given: the % may be the effect or the level left
Staphylococcus aureus [9] = assay: Antibacterial activity against Staphylococcus aureus ATCC 29213 infected in mouse J774A.1 cells assessed as reduction in intracellular bacterial cells at 5 times MIC incubated for 24 hrs followed by re-plating on TSA plate and measured after 18 to 24 hrs; type: functional
Staphylococcus aureus [10] = assay: Post antibiotic effect against Staphylococcus aureus ATCC 29213 assessed as time required for 1 log10 increase in CFU at 1 time MIC incubated for 1 hr followed by replacement with drug free medium and measured every 1 hr (reference value: 2 hrs); type: functional
Staphylococcus aureus [11] = assay: Post antibiotic effect against Staphylococcus aureus ATCC 29213 assessed as time required for 1 log10 increase in CFU at 10 times MIC incubated for 1 hr followed by replacement with drug free medium and measured every 1 hr (reference value: 2 hrs); type: functional
Staphylococcus aureus [12] = assay: Post antibiotic effect against Staphylococcus aureus ATCC 29213 at 1 time MIC incubated for 1 hr followed by replacement with drug free medium and measured every 1 hr (reference value: 0 hr); type: functional
Staphylococcus aureus [13] = assay: Post antibiotic effect against Staphylococcus aureus ATCC 29213 at 10 times MIC incubated for 1 hr followed by replacement with drug free medium and measured every 1 hr (reference value: 0 hr); type: functional
[14] = Induction of resistance in Staphylococcus aureus ATCC 29213 assessed as increase in MIC treated over 35 serial passages by resistant development assay; type: functional
Staphylococcus aureus [15] = assay: Antibacterial activity against Staphylococcus aureus ATCC 29213 infected in Swiss mouse skin infection model assessed as reduction in skin bacterial load at 2 % dose administered twice daily for 4 days; type: functional; conditions: time 4 day
Staphylococcus aureus [16] = assay: Bactericidal activity against Staphylococcus aureus ATCC 29213 assessed as increase in extracellular ATP level at 2.5 times MIC after 1 hr by ATP bioluminescence assay; type: functional, organism-based
Staphylococcus aureus [17] = assay: Bactericidal activity against Staphylococcus aureus ATCC 29213 assessed as decrease in intracellular ATP level at 2.5 times MIC after 1 hr by ATP bioluminescence assay; type: functional, organism-based

C[C@@H](O)[C@H]1C(=O)N2C(C(=O)O)=C(S[C@@H]3CN[C@H](C(=O)N(C)C)C3)[C@H](C)[C@H]12 [MEROPENEM]
MIC (Staphylococcus aureus [1]): 2 µg/mL | MIC (Staphylococcus aureus [2]): 1 µg/mL (≈ 2.61 µM)

CC(C)(O/N=C(\C(=O)N[C@@H]1C(=O)N2C(C(=O)[O-])=C(C[n+]3ccccc3)CS[C@H]12)c1csc(N)n1)C(=O)O [CEFTAZIDIME]
MIC (Staphylococcus aureus [1]): 16 µg/mL | MIC (Staphylococcus aureus [2]): 16 µg/mL (≈ 29.3 µM)

CO[C@H]1/C=C/O[C@@]2(C)Oc3c(C)c(O)c4c(O)c(c(/C=N/N5CCN(C)CC5)c(O)c4c3C2=O)NC(=O)/C(C)=C\C=C\[C@H](C)[C@H](O)[C@@H](C)[C@@H](O)[C@@H](C)[C@H](OC(C)=O)[C@@H]1C [RIFAMPIN]
MIC (Acinetobacter baumannii [3]): 2 µg/mL (≈ 2.43 µM) | MIC (Escherichia coli [4]): 8 µg/mL (≈ 9.72 µM) | MIC (Escherichia coli [5]): 0.06 µg/mL | MIC (Acinetobacter baumannii [6]): 0.03 µg/mL | MIC (Staphylococcus aureus [1]): 0.0078 µg/mL | MIC (Staphylococcus aureus [2]): 0.0078 µg/mL (≈ 0.00948 µM)

CN(C)c1ccc(O)c2c1C[C@H]1C[C@H]3[C@H](N(C)C)C(O)=C(C(N)=O)C(=O)[C@@]3(O)C(O)=C1C2=O [MINOCYCLINE]
MIC (Staphylococcus aureus [1]): 0.125 µg/mL | MIC (Staphylococcus aureus [2]): 0.25 µg/mL (≈ 0.546 µM)

CC(=O)NC[C@H]1CN(c2ccc(N3CCOCC3)c(F)c2)C(=O)O1 [LINEZOLID]
MIC (Staphylococcus aureus [1]): 1 µg/mL | Activity (Staphylococcus aureus [7]): 1.6 log10CFU/ml

C[C@H]1COc2c(N3CCN(C)CC3)c(F)cc3c(=O)c(C(=O)O)cn1c23.C[C@H]1COc2c(N3CCN(C)CC3)c(F)cc3c(=O)c(C(=O)O)cn1c23.O [LEVOFLOXACIN]
MIC (Enterococcus): > 64 µg/mL | MIC (Klebsiella pneumoniae): 64 µg/mL | MIC (Pseudomonas aeruginosa): 0.5 µg/mL | Activity (Staphylococcus aureus [8]): 15% | Activity (Staphylococcus aureus [9]): 0.45 log10CFU/ml | MIC (Staphylococcus aureus [1]): 0.25 µg/mL | Time (Staphylococcus aureus [10]): 2.5 h | Time (Staphylococcus aureus [11]): 3.5 h | PAE (Staphylococcus aureus [12]): 0.5 h | PAE (Staphylococcus aureus [13]): 1.5 h | MIC [14]: 32 µg/mL | MIC (Staphylococcus aureus [2]): 0.125 µg/mL

CCCCCCCCCC(=O)N[C@@H](Cc1c[nH]c2ccccc12)C(=O)N[C@H](CC(N)=O)C(=O)N[C@@H](CC(=O)O)C(=O)N[C@@H]1C(=O)NCC(=O)N[C@@H](CCCN)C(=O)N[C@@H](CC(=O)O)C(=O)N[C@H](C)C(=O)N[C@@H](CC(=O)O)C(=O)NCC(=O)N[C@H](CO)C(=O)N[C@@H]([C@H](C)CC(=O)O)C(=O)N[C@@H](CC(=O)c2ccccc2N)C(=O)O[C@@H]1C
MIC (Staphylococcus aureus [1]): 0.5 µg/mL | MIC (Staphylococcus aureus [2]): 1 µg/mL (≈ 0.617 µM)

CC[C@H](C)CCCCC(=O)N[C@@H](CCN)C(=O)N[C@H](C(=O)N[C@@H](CCN)C(=O)N[C@H]1CCNC(=O)[C@H]([C@@H](C)O)NC(=O)[C@H](CCN)NC(=O)[C@H](CCN)NC(=O)[C@H](CC(C)C)NC(=O)[C@@H](Cc2ccccc2)NC(=O)[C@H](CCN)NC1=O)[C@@H](C)O (HELM PEPTIDE1{[CC[C@H](C)CCCCC(=O)[*:2]].[Dab].T.[Dab].[Dab].[Dab].[dF].L.[Dab].[Dab].T}$PEPTIDE1,PEPTIDE1,5:R3-11:R2$$$V2.0)
MIC (Acinetobacter baumannii [3]): > 64 µg/mL | MIC (Escherichia coli [4]): > 64 µg/mL

GENTAMICIN
MIC (Staphylococcus aureus [1]): 0.06 µg/mL

CC(=O)O[C@H]1C[C@@]2(C)[C@@H](C[C@@H](O)[C@H]3[C@@]4(C)CC[C@@H](O)[C@@H](C)[C@@H]4CC[C@@]32C)/C1=C(\CCC=C(C)C)C(=O)O [FUSIDIC ACID]
Activity (Staphylococcus aureus [15]): 1.8 log10CFU/g

CN[C@H](CC(C)C)C(=O)N[C@H]1C(=O)N[C@@H](CC(N)=O)C(=O)N[C@H]2C(=O)N[C@H]3C(=O)N[C@H](C(=O)N[C@H](C(=O)O)c4cc(O)cc(O)c4-c4cc3ccc4O)[C@H](O)c3ccc(c(Cl)c3)Oc3cc2cc(c3O[C@@H]2O[C@H](CO)[C@@H](O)[C@H](O)[C@H]2O[C@H]2C[C@](C)(N)[C@H](O)[C@H](C)O2)Oc2ccc(cc2Cl)[C@H]1O [VANCOMYCIN]
MIC (Acinetobacter baumannii [3]): 256 µg/mL (≈ 177 µM) | MIC (Escherichia coli [4]): 512 µg/mL (≈ 353 µM) | MIC (Escherichia coli [5]): 128 µg/mL | MIC (Acinetobacter baumannii [6]): 64 µg/mL | Activity (Staphylococcus aureus [8]): 4% | Time (Staphylococcus aureus [10]): 3 h | Time (Staphylococcus aureus [11]): 3.5 h | PAE (Staphylococcus aureus [12]): 1 h | PAE (Staphylococcus aureus [13]): 1.5 h

CC[C@H](C)[C@H](NC(=O)CN)C(=O)NCC(=O)N[C@@H](C)C(=O)N[C@H](C(=O)N[C@@H](CC(C)C)C(=O)N[C@@H](CCCCN)C(=O)N[C@H](C(=O)N[C@@H](CC(C)C)C(=O)N[C@H](C(=O)N[C@H](C(=O)NCC(=O)N[C@@H](CC(C)C)C(=O)N1CCC[C@H]1C(=O)N[C@@H](C)C(=O)N[C@@H](CC(C)C)C(=O)N[C@H](C(=O)N[C@@H](CO)C(=O)N[C@@H](Cc1c[nH]c2ccccc12)C(=O)N[C@H](C(=O)N[C@@H](CCCCN)C(=O)N[C@@H](CCCNC(=N)N)C(=O)N[C@@H](CCCCN)C(=O)N[C@@H](CCCNC(=N)N)C(=O)N[C@@H](CCC(N)=O)C(=O)N[C@@H](CCC(N)=O)C(N)=O)[C@@H](C)CC)[C@@H](C)CC)[C@@H](C)O)[C@@H](C)O)C(C)C)C(C)C
Activity (Staphylococcus aureus [16]): Active | Activity (Staphylococcus aureus [17]): Active
